In the assay the target is T1, PKCβ2 (Homo sapiens, UniProt P05771).
T1 construct: mononucleated cells constitutively expressed PKC isoforms α, β1, β2, γ, l/λ and ζ; endogenous in cells; host or cells: mononucleated cells (monocytes)
The experiment in a line: PKC isoform activation/translocation in mononucleated cells during P-stem cell differentiation. It counts as cell-based. As to conditions: mononucleated cells pre-treated with Go6976 (1 μM) 30 minutes at 37° C., then Bryostatin-1 (10 nM) at designated time intervals; combined treatment; FIG. 4. On the procedure:
The constitutively expressed PKC isoforms in mononucleated cells are detected by Western Blot analysis with each PKC isoform-specific antibodies. […] In the FIG. 1, Mo and pc represents mononucleated cell and PKC positive cell lysate, respectively. To examine the specific activation of PKC isoform(s) iii the differentiation of P-stem cells, mononucleated cells are pre-treated with Go6976 (1 μM) for 30 minutes at 37° C. and then incubated with Brvostatin-1 (10 nM) at designated time intervals. […] Therefore, any substances stimulating the activation of PKCβ2 are capable of inducing the differentiation of P-stem cells.

T1 sequence (P05771 1-673 isoform P05771-2): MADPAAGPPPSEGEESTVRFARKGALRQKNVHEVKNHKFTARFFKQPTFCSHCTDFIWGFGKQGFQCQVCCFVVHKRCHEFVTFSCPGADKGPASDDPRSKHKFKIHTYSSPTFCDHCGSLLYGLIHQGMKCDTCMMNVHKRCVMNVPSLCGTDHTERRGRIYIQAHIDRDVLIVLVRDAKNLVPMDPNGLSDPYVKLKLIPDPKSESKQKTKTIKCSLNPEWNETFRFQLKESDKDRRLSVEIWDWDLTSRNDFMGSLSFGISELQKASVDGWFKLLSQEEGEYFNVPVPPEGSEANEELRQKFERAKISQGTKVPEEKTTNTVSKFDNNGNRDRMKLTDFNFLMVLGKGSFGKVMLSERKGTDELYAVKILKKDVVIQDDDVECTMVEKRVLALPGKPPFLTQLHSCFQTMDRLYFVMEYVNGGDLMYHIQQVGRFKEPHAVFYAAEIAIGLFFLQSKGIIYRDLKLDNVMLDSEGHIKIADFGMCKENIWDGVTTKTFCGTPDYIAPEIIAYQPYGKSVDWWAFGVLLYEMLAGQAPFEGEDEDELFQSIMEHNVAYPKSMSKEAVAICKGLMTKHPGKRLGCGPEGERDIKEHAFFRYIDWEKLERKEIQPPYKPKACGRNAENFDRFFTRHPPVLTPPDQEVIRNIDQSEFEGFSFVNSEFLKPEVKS

With `CCC/C=C/C=C/C(=O)O[C@H]1/C(=C/C(=O)OC)C[C@H]2C[C@H]([C@@H](C)O)OC(=O)C[C@H](O)C[C@@H]3C[C@H](OC(C)=O)C(C)(C)[C@](O)(C[C@@H]4C/C(=C/C(=O)OC)C[C@H](/C=C/C(C)(C)[C@]1(O)O2)O4)O3` [Brvostatin-1, Bryostatin-1], the “specific activation of PKC isoform(s) (translocation from cytosol to plasma membrane)” value is “only PKCβ2 is activated and translocates from cytosol to plasma membrane”. As for `Cn1c2ccccc2c2c3c(c4c5ccccc5n(CCC#N)c4c21)CNC3=O` [Go6976], the “specific activation of PKC isoform(s) (translocation from cytosol to plasma membrane)” value was “only PKCβ2 is activated and translocates from cytosol to plasma membrane”.

The values are drawn from patent publication US20090028830A1, “Preparation of multipotent stem cells and the use thereof” (priority 2005, published 2009).
